# Test results published in patent US20240122923A1, “METHODS OF TREATING HIDRADENITIS SUPPURATIVA” (AbbVie Inc., priority 2022, published 2024).
# Test system: adult human subjects with moderate to severe Hidradenitis Suppurativa (HS)
# Assay: Phase 2 randomized, double-blind, placebo-controlled study of upadacitinib, efficacy incl. post-hoc analysis through week 40
# Type: in vivo
# Conditions: for Pain NRS30 at Week 12, UPA - PBO Diff: UPA 30 mg vs historical PBO rate 22.5%, p=0.028; for HiSCR at Week 12, UPA - PBO Diff: UPA 30 mg vs historical PBO rate 25%, 1-sided p=0.018; for HiSCR at Week 12, % (N), stratum TNF-IR / HiSCR at Week 12, % (N), stratum Hurley Stage (III) / HiSCR at Week 12, % (N), stratum Hurley Stage (<III) / HiSCR at Week 12, % (N), stratum TNF-Naïve / HiSCR at Week 12, % (N), Overall: UPA 30 mg; for HiSCR at Week 12, % (N), stratum TNF-IR: N=12; for HiSCR at Week 12, % (N), stratum Hurley Stage (III): N=23; for HiSCR at Week 12, % (N), stratum Hurley Stage (<III): N=24; for HiSCR at Week 12, % (N), stratum TNF-Naïve: N=35; for HiSCR at Week 12, % (N), Overall: N=47
# Text: This study was a Phase 2, multicenter, randomized, double-blind, parallel-group, placebo-controlled study to evaluate the efficacy and safety of upadacitinib in adult human subjects with moderate to severe Hidradenitis Suppurativa (HS).
# The duration of the study was 57 weeks, including an approximately 35-day screening period followed by a 48-week double-blinded treatment period and a 30-day follow-up visit after the last dose of study drug. Subjects were randomized in a 2:1 ratio to 1 of the 2 arms as shown below: • Upadacitinib 30 mg once daily (QD) (N=40): Daily oral doses of upadacitinib 30 mg from the Baseline visit through Period 1 and Period 2. • Placebo (N=20): Placebo for upadacitinib from the Baseline visit up to the Week 12 visit (Period 1). At Week 12, subjects were switched to blinded upadacitinib 15 mg QD through Period 2.
# The primary objective of this study was to assess the efficacy and safety of upadacitinib 30 mg QD in adult subjects with moderate to severe HS. The primary efficacy objective was assessed based on the achievement of HiSCR after 12 weeks treatment.
# The primary endpoint was Hidradenitis Suppurativa Clinical Response (HiSCR) at Week 12, where HiSCR is defined as at least 50% reduction in the total abscess and inflammatory nodule (AN) count with no increase in abscess count and no increase in draining fistula count relative to Baseline.
# The secondary endpoint was Pain Numerical Rating Scale (NRS30) at Week 12: the achievement of at least 30% reduction and at least 1 unit reduction from Baseline in NRS30 in Patient's Global Assessment of Skin Pain (PGA Skin Pain) at Week 12, among subjects with Baseline NRS≥3.
# The following additional efficacy endpoints were evaluated: • 1. Experience of flare, defined as an increase in AN count of at least 25% with a minimum increase of 2 relative to Baseline • 2. Change from Baseline in Dermatology Life Quality Index (DLQI) • 3. Change from baseline in Hidradenitis Suppurativa Symptom Assessment (HSSA) • 4. Change from baseline in HS-related swelling, assessed based on the HSSA • 5. Change from baseline in HS-related odor, assessed based on the HSSA • 6. Change from baseline in HS-related worst drainage, assessed based on the HSSA
# For the primary and secondary endpoints, comparisons of upadacitinib vs. placebo were made with 3 different analysis strategies, as summarized in Table 1 below:
# For the additional endpoints, comparisons were made for upadacitinib vs. historical reference value of placebo, and upadacitinib vs. in-trial placebo subjects.
# For categorical variables, the primary approach to handle missing data was Non-Responder Imputation [NRI] incorporating Multiple Imputation [MI]. For continuous variables, missing data was handled by Mixed-effect Model Repeat Measurement (MMRM). Missing data for long-term efficacy in Period 2 were handled based on the observed case (OC).
# A post-hoc efficacy assessment through week 40 was performed in the study of Example 1. The analysis included the proportion of patients achieving ≥75% and ≥90% reduction from baseline in AN count with no increase in abscess or draining fistula count (HiSCR 75 and HiSCR 90, respectively) and the proportion of patients achieving ≥55% reduction in International HS Severity Score System endpoint (IHS4-55), which dynamically assesses inflammatory nodules, abscesses, and draining tunnels.
# [1] = UPA 30 mg vs in-trial PBO, p=0.086
# [2] = MI, analysis vs synthetic + in-trial PBO
smiles,measurement,setting,value
CC[C@@H]1CN(C(=O)NCC(F)(F)F)C[C@@H]1c1cnc2cnc3[nH]ccc3n12 [upadacitinib],"Pain NRS30 at Week 12, UPA - PBO Diff",,13.9%
same,"Pain NRS30 at Week 12, UPA - PBO Diff",listed as UPA,Diff = 13.9%
same,"HiSCR at Week 12, UPA - PBO Diff",NRI-C,13.3%
same,"HiSCR at Week 12, UPA - PBO Diff","NRI-C, listed as UPA",Diff = 13.3%
same,"Flare during Period 1, UPA - PBO Diff","UPA 30 mg vs historical PBO rate 34%, p=0.001",Diff = −21.2
same,"Change in HSSA odor at Week 12, UPA - PBO Diff","UPA 30 mg vs historical reference value −0.72, p=0.072",Diff = −0.479
same,"Change in HSSA total symptom at Week 12, UPA - PBO Diff","UPA 30 mg vs historical reference value −0.72, p=0.188",Diff = −0.249
same,"Change in HSSA swelling at Week 12, UPA - PBO Diff","UPA 30 mg vs historical reference value −0.8, p=0.364",Diff = −0.131
same,"Change in HSSA worst drainage at Week 12, UPA - PBO Diff","UPA 30 mg vs historical reference value −0.89, p=0.219",Diff = −0.241
same,"Change in DLQI at Week 12, UPA - PBO Diff","UPA 30 mg vs historical reference value −2.5, p=0.548",Diff = 0.1
same,"Pain NRS30 at Week 12, UPA - PBO Diff (adjusted difference)","UPA 30 mg vs in-trial PBO (N=12), p=0.421",2.2%
same,"Pain NRS30 at Week 12, UPA - PBO Diff (adjusted difference)","UPA 30 mg vs in-trial PBO (N=12), p=0.421, listed as UPA",Diff = 2.2%
same,"HiSCR at Week 12, UPA - PBO Diff (adjusted difference)","UPA 30 mg vs in-trial PBO (N=21), NRI-C, p=0.087",14.7%
same,"HiSCR at Week 12, UPA - PBO Diff (adjusted difference)","UPA 30 mg vs in-trial PBO (N=21), NRI-C, p=0.087, listed as UPA",Diff = 14.7%
same,"Change in HSSA odor at Week 12, UPA - PBO Diff","UPA 30 mg vs in-trial PBO, p=0.024",Diff = −1.246
same,"Change in HSSA total symptom at Week 12, UPA - PBO Diff","UPA 30 mg vs in-trial PBO, p=0.046",Diff = −0.762
same,"Change in HSSA swelling at Week 12, UPA - PBO Diff",[1],Diff = −0.795
same,"Change in HSSA worst drainage at Week 12, UPA - PBO Diff",[1],Diff = −0.695
same,"Change in DLQI at Week 12, UPA - PBO Diff","UPA 30 mg vs in-trial PBO, p=0.222",Diff = −1.4
same,"Flare during Period 1, UPA - PBO Diff","UPA 30 mg vs in-trial PBO, p=0.231",Diff = −6.5
same,"Pain NRS30 at Week 12, UPA - PBO Diff (adjusted difference)","UPA 30 mg vs synthetic plus in-trial PBO (N=80), p=0.323","4.5% (−14.6, 23.5)"
same,"Pain NRS30 at Week 12, UPA - PBO Diff (adjusted difference)","UPA 30 mg vs synthetic plus in-trial PBO (N=80), p=0.323, listed as UPA",Diff = 4.5%
same,"HiSCR at Week 12, UPA - PBO Diff (adjusted difference)","UPA 30 mg vs synthetic plus in-trial PBO (N=89), NRI-C, p=0.142","9.2% (−7.6, 25.9)"
same,"HiSCR at Week 12, UPA - PBO Diff (adjusted difference)","UPA 30 mg vs synthetic plus in-trial PBO (N=89), NRI-C, p=0.142, listed as UPA",Diff = 9.2%
same,"HiSCR at Week 12, % (N), stratum TNF-IR","MI, analysis vs in-trial PBO",41.7% (N = 12)
same,"HiSCR at Week 12, % (N), stratum Hurley Stage (III)","MI, analysis vs in-trial PBO",39.7% (N = 23)
same,"HiSCR at Week 12, % (N), stratum Hurley Stage (<III)","MI, analysis vs in-trial PBO",38.1% (N = 24)
same,"HiSCR at Week 12, % (N), stratum TNF-Naïve","MI, analysis vs in-trial PBO",37.9% (N = 35)
same,"HiSCR at Week 12, % (N), Overall","MI, analysis vs in-trial PBO",38.9% (N = 47)
same,"HiSCR at Week 12, % (N), stratum TNF-IR",[2],41.7% (N = 12)
same,"HiSCR at Week 12, % (N), stratum Hurley Stage (III)",[2],40.3% (N = 23)
same,"HiSCR at Week 12, % (N), stratum Hurley Stage (<III)",[2],39.0% (N = 24)
same,"HiSCR at Week 12, % (N), stratum TNF-Naïve",[2],39.0% (N = 35)
same,"HiSCR at Week 12, % (N), Overall",[2],39.6% (N = 47)
same,"HiSCR at Week 12, % (N), stratum TNF-IR",NRI-C,41.7%
same,"HiSCR at Week 12, % (N), stratum TNF-IR","NRI-C, listed as UPA",41.7% (N = 12)
same,"HiSCR at Week 12, % (N), stratum Hurley Stage (III)",NRI-C,39.1% (N = 23)
same,"HiSCR at Week 12, % (N), stratum Hurley Stage (<III)",NRI-C,37.5% (N = 24)
same,"HiSCR at Week 12, % (N), stratum TNF-Naïve",NRI-C,37.1%
